Patent US20240199613A1 (TAKEDA PHARMACEUTICAL COMPANY LIMITED, priority 2021, published 2024)

Assays:
[1] = molecular target: human activated kallikrein enzyme (Homo sapiens, UniProt P03952); experiment: Inhibition of activated plasma kallikrein, fluorogenic peptide substrate (PFR-AMC) assay, 500 pM enzyme format; assay type: biochemical; conditions: 500 pM activated kallikrein, 300 uM PFR-AMC, 30 min preincubation, 10 min reaction, room temperature; read-out: Primary Dose Response Assay: Average EC50
Protocol: Compounds were evaluated for inhibition of the human activated kallikrein enzyme in two formats of an assay employing a fluorogenic peptide substrate. In one assay format, the concentrations of reagents were as follows: 20 mM Tris pH 7.5, 1 mM EDTA, 150 mM sodium chloride, 0.1% PEG-400, 0.1% Triton X-100, 500 pM activated kallikrein enzyme, 300 uM Pro-Phe-Arg-7-amido-4-methylcoumarin (PFR-AMC) substrate. Prior to reaction initiation with substrate, enzyme and inhibitors were preincubated for 30 min at room temperature. After initiation with substrate, reactions were incubated for 10 min at room temperature and fluorescence emission at 460 nm from 380 nm excitation measured with a microplate reader. In another assay format, the concentrations of reagents were as follows: 20 mM Tris pH 7.5, 1 mM EDTA, 150 mM sodium chloride, 0.1% PEG-400, 0.1% Triton X-100, 5 pM activated kallikrein enzyme, 300 uM PFR-AMC substrate. Prior to reaction initiation with substrate, enzyme and inhibitors were preincubated for 30 min at room temperature. After initiation with substrate, reactions were incubated for 18 hr at room temperature and fluorescence emission at 460 nm from 380 nm excitation measured with a microplate reader.
Table 6 provides the results of the assay in the format with 500 pM activated kallikrein assay.

plasma kallikrein = molecular target: T1, plasma kallikrein (Homo sapiens, UniProt P03952); experiment: Neat human plasma assay: contact pathway-activated (FXIIa) plasma, PFR-AMC substrate; assay type: biochemical; conditions: citrated human plasma (78% final), 10 nM human FXIIa, 100 μM PFR-AMC, room temperature
T1 construct: from tissue; host or cells: sodium citrate collected human plasma (78% final)
Protocol: To analyze inhibition of plasma kallikrein in an ex vivo setting, the potency of compounds was measure in contact pathway-activated plasma assays. In a fluorogenic peptide substrate assay, test compounds dissolved in DMSO were added to sodium citrate collected human or rat plasma in a 96-well microplate. Alternatively, citrated plasma was collected from rats administered the compounds orally or by IV. 10 nM of human FXIIa (Enzyme Research Laboratories) diluted in pKal buffer (20 mM Tris-HCl, pH 7.5, 150 mM NaCl, 1 mM EDTA, 0.1% PEG-8000, and 0.1% Triton X-100) was added to the plasma, followed by the 100 μM of the profluorescent, synthetic plasma kallikrein substrate PFR-AMC (also diluted in pKal buffer). Final plasma concentration in the reaction was 78%. Fluorescence was immediately monitored by excitation/emission wavelengths of 360 nm/480 nm respectively over a period of 5 minutes in a microplate reader. The resulting linear increase in fluorescence emission (reflecting pKal proteolysis of PFR-AMC substrate) was fit to extract a proteolytic rate (fluorescent units over time), and this rate was subsequently plotted against compound inhibitor concentration. Resulting plots were fit to a standard 4-parameter IC50/IC90 equation to determine min/max values, IC50/90, and slope. All experimental steps were performed at room temperature.

T1 sequence (P03952 391-638 limits assumed): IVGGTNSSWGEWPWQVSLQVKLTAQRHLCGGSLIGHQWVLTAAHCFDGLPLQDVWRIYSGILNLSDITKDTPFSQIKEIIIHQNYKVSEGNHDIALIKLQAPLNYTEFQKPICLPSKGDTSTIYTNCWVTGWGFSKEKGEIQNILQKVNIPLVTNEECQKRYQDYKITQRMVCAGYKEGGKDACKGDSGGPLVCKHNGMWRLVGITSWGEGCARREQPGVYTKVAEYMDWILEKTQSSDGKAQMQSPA
T1 sequence (P03952 20-390 partner limits assumed): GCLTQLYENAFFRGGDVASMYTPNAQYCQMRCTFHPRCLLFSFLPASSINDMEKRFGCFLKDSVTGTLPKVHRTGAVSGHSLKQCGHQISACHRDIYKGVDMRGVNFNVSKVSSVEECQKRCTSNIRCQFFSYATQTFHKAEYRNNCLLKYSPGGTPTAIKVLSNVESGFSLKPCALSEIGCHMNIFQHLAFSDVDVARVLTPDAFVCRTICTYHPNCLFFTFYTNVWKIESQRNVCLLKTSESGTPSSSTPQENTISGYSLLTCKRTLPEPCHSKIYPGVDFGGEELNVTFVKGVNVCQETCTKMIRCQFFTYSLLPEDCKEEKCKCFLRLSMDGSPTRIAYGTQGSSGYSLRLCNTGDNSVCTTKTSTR
Sequence of human activated kallikrein enzyme (P03952 391-638 limits assumed): as the sequence (P03952 391-638 limits assumed) above
Sequence of human activated kallikrein enzyme (P03952 20-390 partner limits assumed): as the sequence (P03952 20-390 partner limits assumed) above

| EC50 [1] [nM] | IC90 (plasma kallikrein) [nM] | SMILES |
| --- | --- | --- |
| ≤ 1 | ≤ 400 | Cc1ccnc([C@H]2C[C@@H]2c2cc(NCC(C)(C)O)c3ccc(NCc4cn5cc(C6CC6)cc(N6CC(=O)N(C)C6=O)c5n4)cc3n2)n1 [Example 38, 1-(6-cyclopropyl-2-(((4-((2-hydroxy-2-methylpropyl)amino)-2-((1S,2S)-2-(4-methylpyrimidin-2-yl)cyclopropyl)quinolin-7-yl)amino)methyl)imidazo[1,2-a]pyridin-8-yl)-3-methylimidazolidine-2,4-dione] |
| ≤ 1 | 400 to 1500 | Cc1ccnc([C@H]2C[C@@H]2c2cc(=O)c3ccc(NCc4cn5cc(C6CC6)cc(N6CC(=O)N(C)C6=O)c5n4)cc3[nH]2)n1 (racemic) [Example 11, rac-1-(6-cyclopropyl-2-(((2-((1S*,2S*)-2-(4-methylpyrimidin-2-yl)cyclopropyl)-4-oxo-1,4-dihydroquinolin-7-yl)amino)methyl)imidazo[1,2-a]pyridin-8-yl)-3-methylimidazolidine-2,4-dione] |
| ≤ 1 | 1500 to 10000 | Cc1ccnc([C@H]2C[C@@H]2c2cc(O)c3cnc(NCc4cn5cc(C6CC6)cc(N6CC(=O)N(C)C6=O)c5n4)nc3n2)n1 (racemic) [Example 86, rac-1-(6-cyclopropyl-2-(((5-hydroxy-7-((1S*,2S*)-2-(4-methylpyrimidin-2-yl)cyclopropyl)pyrido[2,3-d]pyrimidin-2-yl)amino)methyl)imidazo[1,2-a]pyridin-8-yl)-3-methylimidazolidine-2,4-dione] |
| ≤ 1 | ≤ 400 | Cc1ccnc([C@H]2C[C@@H]2c2cc(N3CCS(=O)(=O)CC3)c3ccc(NCc4cn5cc(C6CC6)cc(N6CC(=O)N(C)C6=O)c5n4)cc3n2)n1 [Example 37, 1-(6-cyclopropyl-2-(((4-(1,1-dioxidothiomorpholino)-2-((1S,2S)-2-(4-methylpyrimidin-2-yl)cyclopropyl)quinolin-7-yl)amino)methyl)imidazo[1,2-a]pyridin-8-yl)-3-methylimidazolidine-2,4-dione] |
| ≤ 1 | ≤ 400 | Cc1ccnc([C@H]2C[C@@H]2c2cc(N3CC(O)C3)c3ccc(NCc4cn5cc(C6CC6)cc(N6CC(=O)N(C)C6=O)c5n4)cc3n2)n1 [Example 31, 1-(6-cyclopropyl-2-(((4-(3-hydroxyazetidin-1-yl)-2-((1S,2S)-2-(4-methylpyrimidin-2-yl)cyclopropyl)quinolin-7-yl)amino)methyl)imidazo[1,2-a]pyridin-8-yl)-3-methylimidazolidine-2,4-dione] |
| ≤ 1 | ≤ 400 | Cc1ccnc([C@H]2C[C@@H]2c2cc(=O)c3cnc(NCc4cn5cc(C6CC6)cc(N6CC(=O)N(C)C6=O)c5n4)cc3[nH]2)n1 (racemic) [Example 10, rac-1-(6-cyclopropyl-2-(((2-((1S*,2S*)-2-(4-methylpyrimidin-2-yl)cyclopropyl)-4-oxo-1,4-dihydro-1,6-naphthyridin-7-yl)amino)methyl)imidazo[1,2-a]pyridin-8-yl)-3-methylimidazolidine-2,4-dione] |
| ≤ 1 | ≤ 400 | Cc1ccnc([C@H]2C[C@@H]2c2cc(N3CCN(C)CC3)c3ccc(NCc4cn5cc(C6CC6)cc(N6CC(=O)N(C)C6=O)c5n4)cc3n2)n1 [Example 39, 1-(6-cyclopropyl-2-(((4-(4-methylpiperazin-1-yl)-2-((1S,2S)-2-(4-methylpyrimidin-2-yl)cyclopropyl)quinolin-7-yl)amino)methyl)imidazo[1,2-a]pyridin-8-yl)-3-methylimidazolidine-2,4-dione] |
| ≤ 1 | 1500 to 10000 | Cc1ccnc([C@H]2C[C@@H]2c2nc(=O)c3ccc(NCc4cn5cc(C6CC6)cc(N6CC(=O)N(C)C6=O)c5n4)cc3[nH]2)n1 (racemic) [Example 8, rac-1-(6-cyclopropyl-2-(((2-((1S*,2S*)-2-(4-methylpyrimidin-2-yl)cyclopropyl)-4-oxo-1,4-dihydroquinazolin-7-yl)amino)methyl)imidazo[1,2-a]pyridin-8-yl)-3-methylimidazolidine-2,4-dione] |
| ≤ 1 | 1500 to 10000 | Cc1ccnc([C@H]2C[C@@H]2c2ccc3ccc(NCc4cn5cc(C6CC6)cc(N6CC(=O)N(C)C6=O)c5n4)cc3n2)n1 (single isomer, unassigned) [Example 59] |

More lines, now with the values behind:

| SMILES | EC50 [1] [nM] | IC90 (plasma kallikrein) [nM] |
| --- | --- | --- |
| Cc1ccnc([C@H]2C[C@@H]2c2cc(N3CC4(COC4)C3)c3ccc(OCc4cn5cc(C6CC6)cc(N6CC(=O)N(C)C6=O)c5n4)cc3n2)n1 [Example 43, 1-[6-cyclopropyl-2-[[2-[(1S,2S)-2-(4-methylpyrimidin-2-yl)cyclopropyl]-4-(2-oxa-6-azaspiro[3.3]heptan-6-yl)-7-quinolyl]oxymethyl]imidazo[1,2-a]pyridin-8-yl]-3-methyl-imidazolidine-2,4-dione] | ≤ 1 | ≤ 400 |
| Cc1ccnc([C@H]2C[C@@H]2C2=NS(=O)(=O)c3ccc(NC(C)c4cn5cc(C6CC6)ccc5n4)cc3N2)n1 (stereo partly drawn) [Example 87, 6-((1-(6-cyclopropylimidazo[1,2-a]pyridin-2-yl)ethyl)amino)-3-((1S,2S)-2-(4-methylpyrimidin-2-yl)cyclopropyl)-4H-benzo[e][1,2,4]thiadiazine 1,1-dioxide] | ≤ 1 | 400 to 1500 |
| Cc1cc(N2CC(=O)N(C)C2=O)c2nc(COc3ccc4c(N5CC6(COC6)C5)cc([C@H]5C[C@@H]5c5nccc(C)n5)nc4c3)cn2c1 [Example 96, 3-methyl-1-(6-methyl-2-(((2-((1S,2S)-2-(4-methylpyrimidin-2-yl)cyclopropyl)-4-(2-oxa-6-azaspiro[3.3]heptan-6-yl)quinolin-7-yl)oxy)methyl)imidazo[1,2-a]pyridin-8-yl)imidazolidine-2,4-dione] | ≤ 1 | ≤ 400 |
| COc1cc(NCc2cn3cc(C)cc(N4CC(=O)N(C)C4=O)c3n2)cc2nc([C@H]3C[C@@H]3c3nccc(C)n3)ccc12 (racemic) [Example 104, rac-1-(2-(((5-methoxy-2-((1S*,2S*)-2-(4-methylpyrimidin-2-yl)cyclopropyl)quinolin-7-yl)amino)methyl)-6-methylimidazo[1,2-a]pyridin-8-yl)-3-methylimidazolidine-2,4-dione] | 1 to 10 | 400 to 1500 |
| Cc1ccnc([C@H]2C[C@@H]2C2=NS(=O)(=O)c3cc4c(cc3N2)N(Cc2cn3cc(C5CC5)ccc3n2)CCO4)n1 [Example 93, 6-((6-cyclopropylimidazo[1,2-a]pyridin-2-yl)methyl)-3-((1S,2S)-2-(4-methylpyrimidin-2-yl)cyclopropyl)-7,8-dihydro-4H,6H-[1,4]oxazino[2′,3′:4,5]benzo[1,2-e][1,2,4]thiadiazine 1,1-dioxide] | ≤ 1 | 1500 to 10000 |
| Cc1ccnc([C@H]2C[C@@H]2C2=CS(=O)(=O)c3ccc(NCc4cn5cc(C6CC6)ccc5n4)cc3N2)n1 (racemic) [Example 55, rac-6-(((6-cyclopropylimidazo[1,2-a]pyridin-2 yl)methyl)amino)-3-((1S*,2S*)-2-(4-methylpyrimidin-2-yl)cyclopropyl)-4H-benzo[b][1,4]thiazine 1,1-dioxide] | ≤ 1 | 1500 to 10000 |
| Cc1ccnc([C@H]2C[C@@H]2c2ccc3ccc(NCc4cn5cc(C6CC6)cc(N6CC(=O)NC6=O)c5n4)cc3n2)n1 (racemic) [Example 81, rac-1-(6-cyclopropyl-2-(((2-((1S*,2S*)-2-(4-methylpyrimidin-2-yl)cyclopropyl)quinolin-7-yl)amino)methyl)imidazo[1,2-a]pyridin-8-yl)imidazolidine-2,4-dione] | ≤ 1 | 1500 to 10000 |
| CN1C(=O)CN(c2cc(C3CC3)cn3cc(CNc4ccc5c(=O)cc([C@H]6C[C@@H]6c6cccc(Cl)c6)[nH]c5c4)nc23)C1=O (racemic) [Example 5, rac-1-(2-(((2-((1S*,2S*)-2-(3-chlorophenyl)cyclopropyl)-4-oxo-1,4-dihydroquinolin-7-yl)amino)methyl)-6-cyclopropylimidazo[1,2-a]pyridin-8-yl)-3-methylimidazolidine-2,4-dione] | 1 to 10 | 1500 to 10000 |
